Experimental data published in PubChem BioAssay (NCI).
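Values below derive from 48-hour exposures of cells grown in 96-well plates, with endpoints linearly interpolated between the two concentrations bracketing the appropriate inhibition level. TGI denotes the concentration required for complete inhibition of growth.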

Assays:
Assay in all cases: growth of human tumour cells (NCI), 48 h
[1] = tested on: UACC-62 melanoma
[2] = tested on: HOP-62 NSCLC
[3] = tested on: XF 498 CNS
[4] = tested on: COLO 205 colon
[5] = tested on: OVCAR-4 ovarian
[6] = tested on: ACHN renal
[7] = tested on: 786-0 renal
[8] = tested on: DMS 273 small cell lung
[9] = tested on: LOX IMVI melanoma
[10] = tested on: SF-539 CNS
[11] = tested on: SK-MEL-2 melanoma
[12] = tested on: SNB-78 CNS
[13] = tested on: MALME-3M melanoma
[14] = tested on: HT29 colon
[15] = tested on: NCI-H23 lung
[16] = tested on: NCI-H522 lung
[17] = tested on: DLD-1 colon
[18] = tested on: HL-60(TB) leukemia
[19] = tested on: SK-OV-3 ovarian
[20] = tested on: M19-MEL melanoma
[21] = tested on: UACC-257 melanoma
[22] = tested on: HCC-2998 colon
[23] = tested on: OVCAR-3 ovarian
[24] = tested on: HCT-15 colon
[25] = tested on: OVCAR-5 ovarian
[26] = tested on: DMS 114 small cell lung
[27] = tested on: SN12C renal
[28] = tested on: HOP-18 NSCLC
[29] = tested on: CCRF-CEM leukemia
[30] = tested on: CAKI-1 renal
[31] = tested on: KM12 colon
[32] = tested on: KM20L2 colon
[33] = tested on: OVCAR-8 ovarian
[34] = tested on: SNB-75 CNS
[35] = tested on: NCI-H226 lung
[36] = tested on: LXFL 529 NSCLC
[37] = tested on: SK-MEL-28 melanoma
[38] = tested on: A549 NSCLC
[39] = tested on: MOLT-4 leukemia
[40] = tested on: SNB-19 CNS
[41] = tested on: M14 melanoma
[42] = tested on: RXF-631 renal
[43] = tested on: K-562 leukemia
[44] = tested on: U251 CNS
[45] = tested on: A498 renal
[46] = tested on: SW-620 colon
[47] = tested on: SF-268 CNS
[48] = tested on: EKVX NSCLC
[49] = tested on: IGROV1 ovarian
[50] = tested on: RXF 393 renal
[51] = tested on: TK-10 renal
[52] = tested on: NCI-H460 lung
[53] = tested on: SF-295 CNS
[54] = tested on: HCT-116 colon

O=P1(Oc2ccccc2)C(c2ccccc2)C(c2ccccc2)=NN1c1ccccc1 (centres undefined)
TGI [1]: 35.3 µM
TGI [2]: 71.3 µM
TGI [3]: > 100 µM
TGI [4]: 36.4 µM
TGI [5]: 86.3 µM
TGI [6]: 77.6 µM
TGI [7]: > 100 µM
TGI [8]: 89.3 µM
TGI [9]: 31.6 µM
TGI [10]: 35.9 µM
TGI [11]: 31.6 µM
TGI [12]: > 100 µM
TGI [13]: > 100 µM
TGI [14]: 33 µM
TGI [15]: 51.9 µM
TGI [16]: 36.4 µM
TGI [17]: 34.3 µM
TGI [18]: 47 µM
TGI [19]: 54.4 µM
TGI [20]: 54.9 µM
TGI [21]: 75.8 µM
TGI [22]: 89.8 µM
TGI [23]: 42.2 µM
TGI [24]: 44.7 µM
TGI [25]: 50.2 µM
TGI [26]: 43.8 µM
TGI [27]: 94.3 µM
TGI [28]: > 100 µM
TGI [29]: > 100 µM
TGI [30]: 65 µM
TGI [31]: 64.4 µM
TGI [32]: 44.9 µM
TGI [33]: > 100 µM
TGI [34]: > 100 µM
TGI [35]: 55 µM
TGI [36]: 45.7 µM
TGI [37]: 64.2 µM
TGI [38]: 93.8 µM
TGI [39]: 57 µM
TGI [40]: > 100 µM
TGI [41]: 39.6 µM
TGI [42]: > 100 µM
TGI [43]: 66 µM
TGI [44]: 42.2 µM
TGI [45]: 84.6 µM
TGI [46]: 53.1 µM
TGI [47]: 93.6 µM
TGI [48]: > 100 µM
TGI [49]: 69.9 µM
TGI [50]: 40.7 µM
TGI [51]: > 100 µM
TGI [52]: 60.9 µM
TGI [53]: 89.5 µM
TGI [54]: 31.3 µM
